Series [1] has as its system Human immunodeficiency virus 1. The experiment in a line: Potency index, ratio of nevirapine EC50 to test compound EC50 for wild type HIV1 3B infected in human MT4 cells. In kind it is functional.
Series [2] concerns Human immunodeficiency virus 1. The experiment in a line: Antiviral activity against wild type HIV1 3B infected in human MT4 cells assessed as reduction of virus-induced cytopathic effect after 4 days by MTT assay. Conditions: Human immunodeficiency virus 1, 3B, MT4, 96 h. The series is classed as functional, organism-based.
Series [3] in a line: Cytotoxicity against human MT4 cells assessed as reduction in cell viability after 4 days by MTT assay. The series is classed as cell-based.
Series [4] is described as follows: Selectivity index, ratio of CC50 for human MT4 cells to EC50 for wild type HIV1 3B. The series is classed as toxicity. As to conditions: read-out: Ratio CC50/EC50.
The test system of series [5] is Human immunodeficiency virus 2. The experiment in a line: Antiviral activity against HIV2 ROD infected in human MT4 cells assessed as reduction of virus-induced cytopathic effect after 4 days by MTT assay. In kind it is functional, organism-based. Conditions: Human immunodeficiency virus 2, ISOLATE ROD, MT4, 96 h.
The target of series [6] is Human immunodeficiency virus type 1 reverse transcriptase (Human immunodeficiency virus 1, UniProt Q72547). Kind of series: Inhibition of recombinant wild type HIV1 reverse transcriptase p66/p51 using poly (rA)/anoligo (dT)16 as template/primer assessed as inhibition of biotin-dUTP incorporation after 40 mins by Pico-Green staining based fluorescence assay.

Molecules are shown by their SMILES.

Turning to `Cc1cc(-c2ccccc2)cc(C)c1Nc1ccnc(Nc2ccc(C#N)cc2)n1`, the “Ratio EC50” value in series [1] was 10. Moreover, the EC50 was 2.8 nM in series [2] and > 4170 nM in series [5]. Further, in series [3], the CC50 at 96 h turned out to be 4170 nM. In series [4], the selectivity ratio is 1520. Further, in series [6], the IC50 is 16 nM.

For the origin of these results see ChEMBL document CHEMBL4145492, “Discovery of biphenyl-substituted diarylpyrimidines as non-nucleoside reverse transcriptase inhibitors with high potency against wild-type and mutant HIV-1” (Eur J Med Chem, 2018).
